Experimental data reported in ChEMBL document CHEMBL3352519, “Discovery of a novel pyrazole series of group X secreted phospholipase A2 inhibitor (sPLA2X) via fragment based virtual screening” (Bioorg Med Chem Lett, 2014).

How the values were obtained:
[1] = target: T1, Group 10 secretory phospholipase A2 (Homo sapiens, UniProt O15496); assay: Inhibition of human sPLA2X using 1,2-bis(heptanoylthio) glycerophosphocholine substrate incubated for 30 mins
T1 sequence (O15496 whole entry): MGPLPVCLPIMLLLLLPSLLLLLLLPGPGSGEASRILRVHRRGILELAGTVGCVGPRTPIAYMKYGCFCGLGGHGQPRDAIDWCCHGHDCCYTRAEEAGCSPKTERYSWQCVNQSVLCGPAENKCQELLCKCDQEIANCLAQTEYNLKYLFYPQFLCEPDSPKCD

[2] = target: T1, Group 10 secretory phospholipase A2; assay: Binding affinity to sPLA2X (unknown origin)
[3] = target: T1, Group 10 secretory phospholipase A2; assay: (§1) Binding affinity to sPLA2X (unknown origin) by NMR spectroscopy based displacement assay
[4] = target: T2, Group 10 secretory phospholipase A2 (Homo sapiens) (UniProt O15496); assay: as §1; settings: concentration not given here
T2 sequence (whole entry): T1 sequence (O15496 whole entry)

Cc1sccc1-c1cc(C(N)=O)n[nH]1
IC50 [1]: 0.631 µM

COc1ccc2c(C(O)C(N)=O)c(C)n(Cc3ccccc3)c2c1 (stereo not given)
IC50 [2]: 250 µM

Oc1nc(-c2ccccc2)c(-c2ccccc2)[nH]1
IC50 [3]: 45 µM | inhibition [4]: 88%

Cc1sc(-c2ccccc2)cc1-c1cc(C(N)=O)n[nH]1
IC50 [1]: 0.347 µM

Cc1sc(C(C)C)cc1-c1cc(C(N)=O)n[nH]1
IC50 [1]: < 0.0513 µM

Cc1cc(-c2cc(C(N)=O)n[nH]2)c(C)s1
IC50 [3]: 20 µM | inhibition [4]: 57% | IC50 [1]: 0.316 µM

Cc1ccccc1-c1cc(C(N)=O)n[nH]1
IC50 [1]: 2.75 µM

O=C(O)c1csc(-c2ccc3c(c2)CCO3)n1
IC50 [3]: 70 µM | inhibition [4]: 80%

Cc1sc(-c2ccccc2)cc1-c1cc(C(N)=O)nn1C
IC50 [1]: 1.2 µM

O=C(O)c1ccc(-n2ncc3ccccc3c2=O)cc1
IC50 [3]: 50 µM | inhibition [4]: 76%

NC(=O)c1cc(-c2ccccc2Cl)[nH]n1
IC50 [1]: 9.33 µM

NC(=O)c1cc(-c2cc(Cl)sc2Cl)[nH]n1
IC50 [1]: 0.398 µM

Cc1cc(-c2cc(C(N)=O)nn2C)c(C)s1
IC50 [1]: 0.851 µM

Cc1sc2ccccc2c1-c1cc(C(N)=O)n[nH]1
IC50 [1]: 0.174 µM

Cc1sc2ccccc2c1-c1cc(C(N)=O)nn1C
IC50 [1]: 0.851 µM
